Measurements as given in patent US20130338176A1, “METHODS OF PREVENTING AND TREATING HYPERLIPIDEMIA OR ATHEROSCLEROSIS” (The Trustees of Columbia University in the City of New York, priority 2010, published 2013).

Tests used:
[1] = test system: ApoE−/− mice; assay: Atherosclerotic plaque area in Oil Red O stained aortas, ApoE−/− mice; format: in vivo; details: vs placebo
Excerpt: (§1) To study the effect of gut-derived serum or plasma serotonin on the development of atherosclerosis, two well-studied genetic mouse models of hypercholesterolemia and atherosclerosis were used, namely mice with deletions in both copies of the apoliprotein E gene (referred to as ApoE−/− mice) and mice carrying deletions of both copies of the low density lipoprotein receptor gene (LDLR−/− mice). These mice have elevated blood cholesterol levels due to a defect in hepatic clearance of cholesterol containing very low density lipoproteins and low density lipoproteins (Ishibashi et al., 1993, J. Clin. Invest. 92:883-893; Plump et al., 1992, Cell 71:343-353). To accelerate the process of atherosclerotic plaque development, the mice were placed on a high cholesterol rodent diet at 5 weeks of age and fed this diet for 12 weeks. […]
(§2) After 12 weeks of high cholesterol diet and administration of therapeutic agent or placebo, the mice were sacrificed to determine the amount of atheromas in their aortas. […] A quantitative computer-assisted image analysis (ImageJ) of the plaque staining areas was performed and correlated with the whole vessel wall areas.

[2] = test system: LDLR−/− mice; assay: Atherosclerotic plaque area in Oil Red O stained aortas, LDLR−/− mice; format: in vivo; details: vs placebo
Excerpt: as §1, §2

[3] = test system: ApoE−/− mice; assay: Plasma serotonin determination (ELISA), ApoE−/− mice; format: in vivo; details: high cholesterol diet 12 weeks, 200 mg per kg per day orally, vs placebo
Excerpt: (§3) To study the effect of gut-derived serum or plasma serotonin on the development of atherosclerosis, two well-studied genetic mouse models of hypercholesterolemia and atherosclerosis were used, namely mice with deletions in both copies of the apoliprotein E gene (referred to as ApoE−/− mice) and mice carrying deletions of both copies of the low density lipoprotein receptor gene (LDLR−/− mice). These mice have elevated blood cholesterol levels due to a defect in hepatic clearance of cholesterol containing very low density lipoproteins and low density lipoproteins (Ishibashi et al., 1993, J. Clin. Invest. 92:883-893; Plump et al., 1992, Cell 71:343-353). To accelerate the process of atherosclerotic plaque development, the mice were placed on a high cholesterol rodent diet at 5 weeks of age and fed this diet for 12 weeks. During this period, the mice were orally administrated placebo (diluent) or LP-533401, an inhibitor of tryptophan hydroxylase 1 (TPH1), the key enzyme required for serum or plasma serotonin synthesis, at the dose of 200 mg per kg of body weight per day (FIG. 1).
Serotonin content in the plasma was determined using Serotonin research ELISA (IBL, Cat. No. IB89540) according to the manufacturer's instructions.

[4] = test system: ApoE−/− mice; assay: Plasma cholesterol, triglyceride, glycerol and free fatty acid levels, ApoE−/− mice; format: in vivo
Excerpt: as §3
(§4) Cholesterol, triglycerides, glycerol, and free fatty acids were measured in plasma from 4 hours fasted mice using commercially available kits (Cholesterol E, Wako, Cat. No. 439-17501; Triglycerides determination kit, Sigma, Cat. No. TR0100-1KT (measures both triglycerides and glycerol), HR Series NEFA-HR, Wako, Cat. No. 999-34691) according to the manufacturer's instructions.

[5] = test system: LDLR−/− mice; assay: Plasma cholesterol and triglyceride levels, LDLR−/− mice; format: in vivo; details: high cholesterol diet, vs placebo
Excerpt: as §1, §4

[6] = test system: wild type mice; assay: Plasma cholesterol, triglyceride, glycerol and free fatty acid levels, wild type mice; format: in vivo; details: vs placebo
Procedure: as §4

[7] = test system: adipose tissue explants; assay: Adipose tissue explants, FFA and glycerol release on stimulation with serotonin; format: cell-based, mice; details: white adipose tissue explants, ex vivo
Procedure: (§5) Epigonadal fat pads were isolated from 8 week old wild type male mice, cut into 20 mg fragments, and placed in culture medium (DMEM low glucose, 0.1% bovine serum albumin, both from Invitrogen) in a cell incubator (37° C., 5% CO2 atmosphere) for 2 h. After this time, the fat explants were stimulated for 2 h with different concentrations of serotonin. Concentrations of free fatty acids (FFA) and glycerol were measured in the medium. For gene expression analysis, tissue was homogenized in TRIZOL® reagent (Sigma) and RNA was isolated according to the manufacturer's instructions. The RNA was used as a template for cDNA synthesis (cDNA synthesis kit, Invitrogen). The relative gene expression was quantified using Real Time PCR.

[8] = test system: adipose tissue explants; assay: Adipose tissue explants, mRNA expression of lipolysis genes (Real Time PCR); format: cell-based, mice; details: 25 μM serotonin, vs untreated control
Procedure: as §5

[9] = ApoE−/− mice fed high cholesterol diet, vs placebo
[10] = ApoE−/− mice fed normal rodent chow diet, vs placebo
[11] = 2 h stimulation, all tested concentrations

## Nc1nc(OC(c2ccc(-c3cccc(F)c3)cc2)C(F)(F)F)cc(-c2ccc(C[C@H](N)C(=O)O)cc2)n1 (stereo partly drawn) [LP-533401]
[1]; high cholesterol diet 12 weeks, 200 mg per kg of body weight per day orally
  reduction of the area occupied by atherosclerotic plaques: 44%
[1]; FIG. 2
  atheroma formation: decreased atheroma formation
[2]; high cholesterol diet 12 weeks, 200 mg per kg per day orally
  reduction in the amount of atherosclerotic plaques: 40%
[2]; FIG. 3
  atheroma formation: lowers atheroma formation
[3]
  reduction of plasma serotonin levels: 80%
[4]; [9]
  FFA levels: reduced
  glycerol levels: reduced
[4]; [10]
  FFA levels: reduced
  glycerol levels: reduced
[4]; ApoE−/− mice, high cholesterol diet, 200 mg per kg per day orally, 4 hours fasted
  cholesterol levels in plasma, reduced in comparison to placebo: 30%
[4]; ApoE−/− mice, high cholesterol diet, vs placebo
  triglyceride levels: does not alter triglyceride levels
[5]
  triglyceride levels: does not alter triglyceride levels
[6]
  FFA levels: reduced
  cholesterol levels: did not alter cholesterol levels
  glycerol levels: reduced
  triglyceride levels: lowers triglyceride levels

## NCCc1c[nH]c2ccc(O)cc12 [serotonin, 5-hydroxytryptamine]
[7]
  concentration giving the highest stimulation of FFA and glycerol secretion: 25 µM
[7]; [11]
  secretion of FFA from the adipose tissue: stimulated secretion
  secretion of glycerol from the adipose tissue: stimulated secretion
[8]
  expression levels of CGI58: does not influence the expression levels
  expression levels of GOS2: does not influence the expression levels
  expression levels of perilipin: does not influence the expression levels
  expression of adipose triglyceride lipase (ATGL): does not affect
  expression of hormone sensitive lipase (HSL): promotes the expression
